Data taken from PMC5282955, “Fatty acid binding profile of the liver X receptor α” (Journal of Lipid Research, 2017).
One block for each compound: values may come before it.

Tests used:
Format in all cases: binding
[1] = biological target: T1, LXRα (Homo sapiens, UniProt Q13133); test: intrinsic aromatic fluorescence quenching (positive control), CD; LXRE reporter activation
T1 construct: gene NR1H3
T1 sequence (Q13133 1-447): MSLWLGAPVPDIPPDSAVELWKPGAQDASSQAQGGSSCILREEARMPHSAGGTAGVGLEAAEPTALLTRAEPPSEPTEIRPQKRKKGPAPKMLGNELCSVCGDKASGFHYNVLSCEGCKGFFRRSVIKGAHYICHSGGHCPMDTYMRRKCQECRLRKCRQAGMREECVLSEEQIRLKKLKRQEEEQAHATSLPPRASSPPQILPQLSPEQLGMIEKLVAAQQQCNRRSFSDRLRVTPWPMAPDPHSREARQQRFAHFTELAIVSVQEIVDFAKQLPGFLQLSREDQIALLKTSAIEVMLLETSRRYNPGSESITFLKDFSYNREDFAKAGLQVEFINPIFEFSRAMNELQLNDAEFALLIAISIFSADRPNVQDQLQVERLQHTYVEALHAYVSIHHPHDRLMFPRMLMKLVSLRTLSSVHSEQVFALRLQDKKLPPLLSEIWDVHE

[2] = biological target: T1, LXRα; test: intrinsic aromatic fluorescence quenching; also displacement of BODIPY C16-CoA (Ki […]); CD
[3] = biological target: T1, LXRα; test: as above; remark: listed apart in the source
[4] = biological target: T1, LXRα; test: displacement of LXRα-bound BODIPY C16-CoA; CD change
[5] = biological target: T1, LXRα; test: intrinsic aromatic fluorescence quenching; displacement Ki […]; LXRE reporter activation
[6] = biological target: T1, LXRα; test: intrinsic aromatic fluorescence quenching; also displacement of BODIPY C16-CoA (Ki […])
[7] = biological target: T1, LXRα; test: as above; remark: listed apart in the source

SMILES: C[C@H](CCCC(C)(C)O)[C@H]1CC[C@H]2[C@@H]3CC=C4C[C@@H](O)CC[C@]4(C)[C@H]3CC[C@]12C [25-HC, 25-hydroxycholesterol]
intrinsic aromatic fluorescence quenching (positive control), CD; LXRE reporter [1]: Binding with T-0901317 and 25-hydroxycholesterol (positive controls) yielded binding curves that were sharply saturable

SMILES: CCCCCCCC(=O)SCCNC(=O)CCNC(=O)[C@H](O)C(C)(C)COP(=O)(O)OP(=O)(O)OC[C@H]1O[C@@H](n2cnc3c(N)ncnc32)[C@H](O)[C@@H]1OP(=O)(O)O [C8:0-CoA, Octanoyl-CoA]
Kd [2]: 15 ± 5 nM

SMILES: CCCCCCCCCC(=O)O [C10:0, Decanoic acid]
Kd [3]: 15 ± 6 nM

SMILES: CCCCCCCCCC(=O)SCCNC(=O)CCNC(=O)[C@H](O)C(C)(C)COP(=O)(O)OP(=O)(O)OC[C@H]1O[C@@H](n2cnc3c(N)ncnc32)[C@H](O)[C@@H]1OP(=O)(O)O [C10:0-CoA, Decanoyl-CoA]
Ki [4]: 7 ± 3 nM

Next, values leading:

Kd [5]: 11 ± 4 nM
SMILES: CCCCCCCCCCCC(=O)O [C12:0, Lauric acid]

Kd [6]: 18 ± 8 nM
SMILES: CCCCCCCCCCCC(=O)SCCNC(=O)CCNC(=O)[C@H](O)C(C)(C)COP(=O)(O)OP(=O)(O)OC[C@H]1O[C@@H](n2cnc3c(N)ncnc32)[C@H](O)[C@@H]1OP(=O)(O)O [C12:0-CoA, Lauroyl-CoA]

Kd [7]: 14 ± 7 nM
SMILES: CCCCCCCCCCCCCCCC(=O)SCCNC(=O)CCNC(=O)[C@H](O)C(C)(C)COP(=O)(O)OP(=O)(O)OC[C@H]1O[C@@H](n2cnc3c(N)ncnc32)[C@H](O)[C@@H]1OP(=O)(O)O [C16:0-CoA, Palmitoyl-CoA]
